Molecular target: T1, Aβ1-42 aggregates (Homo sapiens, UniProt P05067)
T1 construct: Aβ1-42 aggregates (Peptide Institute, Inc, Osaka) were dissolved in 0.1 mol/L phosphate-buffered saline; purchased Peptide Institute, Inc., Osaka
Experiment: Binding evaluation using Aβ peptide aggregation in solution (Example 13)
Conditions: for Ki: inhibition of [^125I]IMPY binding to Aβ1-42 aggregates, value following ± shows SE, read-out: Kl
Experimental: Aβ1-42 peptide (Peptide Institute, Inc., Osaka) was gently dissolved at a concentration of 0.25 mg/mL in a PBS solution (pH 7.4), which was then incubated at 37° C. for 42 hours to prepare an Aβ1-42 aggregate PBS solution.
Thereafter, the resultant was filtered through Whatman (R) GF/B filter using a Brandell M-24 cell harvester, and the radioactivity of the filter was measured using a γ counter (Wallac 1470 Wizard, from Perkin-Elmer).
The half inhibition concentration (IC50) value was determined from a replacement straight line using GraphPad Prism 5.0, and the inhibition constant (Ki) was calculated using the Cheng-Prusoff equation: the above-described Expression (1).

T1 sequence (P05067 672-713 limits assumed): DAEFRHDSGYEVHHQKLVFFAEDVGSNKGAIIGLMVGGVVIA

SMILES | binding affinity relative to D1 (Ki of D2 compared with D1) [times] | Ki [nM]
CNc1ccc(-c2cnc3cc(OCCF)ccc3n2)cc1 [Compound D2, 4-(6-(2-Fluoroethoxy)quinoxalin-2-yl)-N-methylaniline] | ≥ 10 | 15.7 ± 1.28
Nc1ccc(-c2cnc3cc(OCCF)ccc3n2)cc1 [Compound D1, 4-(6-(2-Fluoroethoxy)quinoxalin-2-yl)aniline] |  | 242 ± 29
